Read-outs that look alike come from different tables or passages of the source.
Key:
[1] = tested on: A549 and MDA-MB-231 cells; assay: Apoptosis ELISA of exponentially growing cells; assay type: cell-based, human; conditions: 72 hours
STAT1 = biological target: T1, STAT1 (Homo sapiens, UniProt P42224); assay: Electrophoretic mobility shift assay (EMSA), DNA-binding activity of STAT1; assay type: biochemical
T1 construct: expressed in transfected cells; host or cells: H1299
T1 sequence (P42224 1-750): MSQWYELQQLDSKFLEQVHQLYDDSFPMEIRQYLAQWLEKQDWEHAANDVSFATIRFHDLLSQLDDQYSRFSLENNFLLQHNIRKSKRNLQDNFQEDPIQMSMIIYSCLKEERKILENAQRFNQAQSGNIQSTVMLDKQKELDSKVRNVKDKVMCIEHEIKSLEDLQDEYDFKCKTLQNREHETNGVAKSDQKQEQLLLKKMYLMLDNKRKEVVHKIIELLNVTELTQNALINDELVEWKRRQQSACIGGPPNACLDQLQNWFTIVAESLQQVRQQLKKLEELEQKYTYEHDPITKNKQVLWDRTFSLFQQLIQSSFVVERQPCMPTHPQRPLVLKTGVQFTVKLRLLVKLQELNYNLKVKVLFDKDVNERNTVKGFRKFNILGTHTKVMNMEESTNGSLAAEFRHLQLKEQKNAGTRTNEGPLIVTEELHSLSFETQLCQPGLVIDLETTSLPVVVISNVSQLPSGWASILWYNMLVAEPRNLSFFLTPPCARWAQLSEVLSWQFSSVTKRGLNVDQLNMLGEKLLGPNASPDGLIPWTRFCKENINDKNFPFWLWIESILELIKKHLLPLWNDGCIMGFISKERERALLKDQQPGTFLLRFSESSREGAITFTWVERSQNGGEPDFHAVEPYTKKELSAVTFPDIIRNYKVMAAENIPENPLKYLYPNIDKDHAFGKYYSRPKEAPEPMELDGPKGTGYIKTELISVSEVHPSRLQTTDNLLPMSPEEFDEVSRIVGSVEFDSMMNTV
Method: H1299 cells were transiently transfected with FLAG-tagged STAT3 or STAT1 expression construct. Forty-eight hours following transfection, cells were harvested and lysed with 3 cycles of freeze and thaw. 10-20 μg lysate was mixed with 2 μg poly (dI-dC), 1 μg BSA in binding buffer (10 mM HEPES, pH7.9, 50 mM KCl, 10% Glycerol, 0.2 mg/ml BSA, 1 mM DTT and 0.2 mM PMSF), and 4×10^4 cpm [32P]-labeled SIE probe in a total volume of 20 μL. The mixture was incubated for 20 minutes at room temperature and separated on 6% non-denaturing PAGE. The signal was detected by autoradiography. For supershift and competition, 2 μL specific antibodies against STAT3 or STAT1 or 100-fold cold SIE probe (5′-[…]-3′-SEQ ID NO: 1) was added to the reaction mixture and incubated for 30 minutes before adding labeled SIE probe. To determine the effect of inS3-54 on STAT3 or STAT1 binding to SIE probe, inS3-54 was first diluted with DMSO and equal volume of diluted inS3-54 was added to the reaction mixture followed by incubation at room temperature for 30 minutes before incubating with the labeled SIE probe.
EMSA (electrophoretic mobility shift assay) was used for testing in-vitro DNA-binding activity of STAT3 as previously described, Briefly, 20 μg lysate of H1299 cells with transient expression of FLAG-tagged STAT3c or STAT1 was pre-incubated with compounds or vehicle, specific antibodies to STAT3 or STAT1 (Santa Cruz), or excess cold SIE probe (5′-[…]-3′ SEQ ID NO: 2) for 30 mins at room temperature in binding buffer (0.1 μg/μL poly(dI·dC), 10 mM HEPES·KOH, pH 7.9, 50 mM KCl, 10% glycerol, 0.05 μg/μL BSA, 1 mM DTT and 0.2 mM PMSF) before incubating with 4×10^4 cpm [^32P]-labeled SIE probe for 20 min at room temperature. The reactions were separated on 6% non-denaturing polyacrylamide gel signals were detected by autoradiography.

STAT3 = assay: STAT3-dependent luciferase reporter assay in MDA-MB-231-STAT3 stable cells; assay type: cell-based, human; conditions: for potency compared with the original compound inS3-54 / Rel. luciferase activity (%) 1 / Rel. luciferase activity (%) 2 / Rel. luciferase activity (%) 3 / Rel. luciferase activity (%) Mean / inhibition of luciferase expression compared to DMSO vehicle control: 20 μM; for potency compared with the original compound inS3-54: STAT3-dependent luciferase expression; for Rel. luciferase activity (%) 1: experiment 1, relative to DMSO; for Rel. luciferase activity (%) 2: experiment 2, relative to DMSO; for Rel. luciferase activity (%) 3: experiment 3, relative to DMSO; for Rel. luciferase activity (%) Mean: mean of experiments, relative to DMSO; for inhibition of luciferase expression compared to DMSO vehicle control: significant = p value less than 0.05
Procedure, shortened: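 MDA-MB-231 cells stably carrying a STAT3-dependent luciferase reporter, exposed to compounds at 20 μM for 48 h (0.1% v/v DMSO final), then luciferase activity measured. Concentration-response treatments ran 72 h; STAT3-independent control used H1299 cells transiently transfected with p27-promoter luciferase, 48 h.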

A549 cells [2] = assay: Matrigel invasion assay, A549; assay type: cell-based, human
Method: (§1) For wound-healing assay, 1×10^5 cells per well were plated in 6-well plates followed by introduction of a wound and monitoring the healing process of the wound over a 24-hour period. The healing of the wound was determined by measuring the remaining gap between two migrating edges at different times. […] At different times, invading cells were stained with crystal violate and counted.

MDA-MB-231 cells = assay: Matrigel invasion assay, MDA-MB-231; assay type: cell-based, human
Method: as §1

[3] = tested on: STAT3 downstream target genes; assay: Western blot and RT-PCR of STAT3 and its downstream target genes; assay type: cell-based, human
Method: FIG. 10. […] Actin was used as a loading control.
FIG. 11. Effect of inS3-54 on mRNA level of STAT3 downstream target genes. MDA-MB-231 (A) and A549 (B) cells were treated with DMSO control or 20 μM inS3-54 followed by extracting total RNA and real-time PCR analysis.
Quantitative RT-PCR analysis was performed using primers shown in supplemental Table 2 as previously described.

A549 cells [4] = assay: Wound-healing migration assay, A549; assay type: cell-based, human; conditions: 24 hours
Method: as §1

[5] = tested on: A549, H1299, MDA-MB-231 and MDA-MB-468 cells; assay: Cytotoxicity sulphorhodamine (SRB) assay, cancer cells; assay type: cell-based, human
[6] = A549 and MDA-MB-231 cells, Western blot

| Compound | apoptosis (ELISA) [1] | specific binding of DNA probe to STAT1 (EMSA) (STAT1; up to 100 μM) | potency compared with the original compound inS3-54 (STAT3) | Rel. luciferase activity (%) 1 (STAT3) | Rel. luciferase activity (%) 2 (STAT3) | Rel. luciferase activity (%) 3 (STAT3) | Rel. luciferase activity (%) Mean (STAT3) | inhibition of luciferase expression compared to DMSO vehicle control (STAT3) | invasion reduced to, compared with control (A549 cells [2]; 10 μM, 6 hours) | invasion reduced to, compared with control (MDA-MB-231 cells; 10 μM, 6 hours) | expression of STAT3 downstream target genes at protein level (cyclin D1, survivin, VEGF, MMP-2, MMP-9, twist) [3, 6] | wounds healed (A549 cells [4]; 10 μM) | also measured |
| --- | --- | --- | --- | --- | --- | --- | --- | --- | --- | --- | --- | --- | --- |
| O=C1C(=Cc2ccc(Cl)cc2)C=C(c2ccccc2)N1c1ccc(O)cc1 [Compound A18] | remarkable induction of apoptosis | not affected | more potent | 16.3% | 13.2% | 12.3% | 14.0% | significantly inhibited | 35% | 13% | decreased | 47% | cell invasion inhibited (A549 cells [2]; 5 μM, 6 hours): 66%; cell invasion inhibited (MDA-MB-231 cells; 5 μM, 6 hours): 51%; wounds healed (A549 cells [4]; 5 μM): 64% |
| CC(=O)Nc1ccc(N2C(=O)C(=Cc3ccc(Cl)cc3)C=C2c2ccccc2)cc1 [Compound A26] |  | not affected | more potent | 38.0% | 27.5% | 13.2% | 26.2% | significantly inhibited |  |  |  |  | in-vitro therapeutic window ([5]; IC50 in non-cancerous cells divided by that in different cancer cells): small |
| O=C(O)c1ccc(N2C(=O)/C(=C/c3ccc([N+](=O)[O-])cc3)C=C2c2ccccc2)cc1 [inS3-54, 4-[(3E)-3-[(4-nitrophenyl)-methylidene]-2-oxo-5-phenylpyrrol-1-yl]benzoic acid] | induced apoptosis |  |  |  |  |  |  |  | 67% | 52% | decreased | 54% | IC50 ([5]; Homo sapiens, 72 h, read-out: IC50 in cytotoxicity assay, cancer cells): 3.2 to 5.4 µM; specific binding of DNA probe to STAT1 (EMSA) (STAT1; up to 300 μM): not affected; IC50 (STAT3; Homo sapiens, MDA-MB-231, read-out: IC50 in suppressing STAT3-dependent luciferase reporter expression, MDA-MB-231 cells): ~15.8 µM; activity at 20 µM (STAT3; Homo sapiens, read-out: Rel. luciferase activity (%) 1): 34.2%; activity at 20 µM (STAT3; Homo sapiens, read-out: Rel. luciferase activity (%) 2): 37.2%; activity at 20 µM (STAT3; Homo sapiens, read-out: Rel. luciferase activity (%) 3): 41%; activity at 20 µM (STAT3; Homo sapiens, read-out: Rel. luciferase activity (%) Mean): 37.5%; IC50 (STAT3; read-out: IC50 in suppressing STAT3-dependent luciferase reporter expression, MDA-MB-231 cells): 13.8 ± 0.4 µM; invasion reduced to, compared with control (A549 cells [2]; 20 μM, 6 hours): 49%; activity at 10 µM (A549 cells [2]; Homo sapiens, A549, 10 μM, 24 hours, read-out: invasion, % of controls): ~71%; activity at 20 µM (A549 cells [2]; Homo sapiens, A549, 20 μM, 24 hours, read-out: invasion, % of controls): 33%; invasion reduced to, compared with control (MDA-MB-231 cells; 20 μM, 6 hours): 24%; activity at 10 µM (MDA-MB-231 cells; Homo sapiens, MDA-MB-231, 10 μM, 24 hours, read-out: invasion, % of controls): ~24%; activity at 20 µM (MDA-MB-231 cells; Homo sapiens, MDA-MB-231, 20 μM, 24 hours, read-out: invasion, % of controls): 5%; mRNA level of STAT3 downstream targets ([3]; 20 μM, MDA-MB-231 and A549 cells, real-time PCR): inhibited; level of total STAT3 or basal level of Tyr705-phosphorylated STAT3 [3, 6]: had no effect; wounds healed (A549 cells [4]; 20 μM): 27% |
